The values below come from PMC4546427, “Stereoselective Regulation of P-gp Activity by Clausenamide Enantiomers in Caco-2, KB/KBv and Brain Microvessel Endothelial Cells” (PLoS ONE, 2015).

What all share (assay type): cell-based
For data set [1], the target named is T1, P-gp (Homo sapiens, UniProt P08183).
T1 construct: three cells expressing P-gp, Caco-2, KBv and rat brain microvessel endothelial cells (RBMEC); endogenous in cells; host or cells: Caco-2
Nature of the data set: Rh123 accumulation in Caco-2 cells. As to conditions: for Percentage of rhodamine 123 accumulation relative to vehicle treatment: positive = increase; for More Rh123 accumulation than verapamil alone: verapamil 200 μmol/L plus CLA 5 μmol/L. On the procedure:
(§1) Caco-2 cells were seeded onto 6-well plates at a density of 5 × 10^5 cells/well and maintained in MEM supplemented with 10% (v/v) FBS, 1% (v/v) NEAA, 100 units/mL penicillin and 100 μg/mL streptomycin sulphate in a humidified 37°C incubator with 5% CO2. Upon 80%–90% confluence, the cells were provided new complete medium (2 mL/well) and exposed, to vehicle, (−)CLA (1 or 5 μmol/L), (+)CLA (1 or 5 μmol/L), verapamil (200 μmol/L) or individual enantiomer (1 or 5 μmol/L) plus verapamil (200 μmol/L). Then, Rh123 (5 μmol/L) was added to all the wells. After incubation at 37°C and 5% CO2 for 2 h which was designed by the pharmacokinetic parameters of CLA enantiomers, the cells were washed 3 times with 2 mL of ice-cold PBS (pH 7.4), lysed in 400 μL of lysis buffer [50 mmol/L Tris-HCl (pH 8.0), 150 mmol/L NaCl, 0.1% SDS, 100 μg/mL PMSF, 1 μg/mL aprotinin and 1% Nonidet P-40], and then were placed on ice for 40 min. The plates were wrapped in tinfoil. The fluorescence of Rh123 in each well was detected by Spectra Max Gemini XS plate reader (Molecular Devices Corp., Sunnyvale, CA, USA) with excitation and emission wavelengths of 488 nm and 530 nm, respectively. Meanwhile, 10 μL of cell lysates were collected from each well to measure protein concentration using Lowry’s method. Intracellular Rh123 accumulation was normalized by protein concentration (mg/mL) and then was calculated by a standard curve of Rh123 at three concentrations (2.5–10 μmol/L), in parallel with the lysis experiment.

The target of data set [2] is T1, P-gp. The data set can be described thus: Rh123 accumulation in non-induced KB cells. The conditions noted are these: CLA 5 μmol/L, Rh123 5 μmol/L. On the procedure: KB or its vinblastine-resistance derivative KBv cells[19] were maintained on 6-well plates (5 × 10^5 cells/well) in […] medium with 10% FBS, 100 units/mL penicillin and 100 μg/mL streptomycin sulphate at 37°C with 95% air and 5% CO2. After reaching 80%–90% confluence, the two cells were treated with the following agents, respectively: vehicle; (−)CLA (5 or 10 μmol/L); (+)CLA (5 or 10 μmol/L). Additionally, the KBv cells were treated with verapamil (200 μmol/L); or individual enantiomer (5 or 10 μmol/L) plus verapamil (200 μmol/L). Rh123 (5 μmol/L) were finally added to these wells. Subsequently, cell incubation, solubilisation and Rh123 accumulation were performed by using the same method for Caco-2 cells.

For data set [3], the system named is P-gp. Nature of the data set: Rh123 accumulation summarized over Caco-2, KBv and RBMECs. The conditions noted are these: mean of Caco-2, RBMEC, KBv. On the procedure:
as §1
The experimental programs in this part were approved by the Animal Care and Welfare Committee in our institute. Animals were treated in accordance with national/international guidelines. Primary cultures of brain microvessel endothelial cells were prepared from Sprague—Dawley rats (10–12 days old; Beijing Vital River Company, Beijing, China), as previously described by Qian et al.[21]. The gray matter of animals was taken out and minced into small pieces of approximately 1 mm^3 in ice-cold MEM medium, then dissociated by using 2 mg/mL collagenase containing DNase at a final concentration of 10.5 μg/ml on a shaker for 20 min at 37°C. The cells were pelleted by centrifugation(1000 rpm, 10 min, 4°C) and digested once again according to the above protocol. Then 20% dextran(Mr 40,000) was added to the cells for differential centrifugation at 2000 rpm for 10 min. The cells were re-suspended in complete MEM medium and passed through 74-μm stainless steel mesh. […] The P-gp expression in cultured cells was determined by Western blot analyses using a mouse monoclonal antibody raised against amino acids 1040–1280 of P-gp. […]

[4] abbreviates: high dose, CLA 5 μmol/L, Rh123 5 μmol/L, 2 h.
Where [5] appears, read: low dose, CLA 1 μmol/L, Rh123 5 μmol/L, 2 h.

“And” between values parts separate entries of the source, which are not always exact repeats. Equal values may be shown once.

T1 sequence (P08183 whole entry): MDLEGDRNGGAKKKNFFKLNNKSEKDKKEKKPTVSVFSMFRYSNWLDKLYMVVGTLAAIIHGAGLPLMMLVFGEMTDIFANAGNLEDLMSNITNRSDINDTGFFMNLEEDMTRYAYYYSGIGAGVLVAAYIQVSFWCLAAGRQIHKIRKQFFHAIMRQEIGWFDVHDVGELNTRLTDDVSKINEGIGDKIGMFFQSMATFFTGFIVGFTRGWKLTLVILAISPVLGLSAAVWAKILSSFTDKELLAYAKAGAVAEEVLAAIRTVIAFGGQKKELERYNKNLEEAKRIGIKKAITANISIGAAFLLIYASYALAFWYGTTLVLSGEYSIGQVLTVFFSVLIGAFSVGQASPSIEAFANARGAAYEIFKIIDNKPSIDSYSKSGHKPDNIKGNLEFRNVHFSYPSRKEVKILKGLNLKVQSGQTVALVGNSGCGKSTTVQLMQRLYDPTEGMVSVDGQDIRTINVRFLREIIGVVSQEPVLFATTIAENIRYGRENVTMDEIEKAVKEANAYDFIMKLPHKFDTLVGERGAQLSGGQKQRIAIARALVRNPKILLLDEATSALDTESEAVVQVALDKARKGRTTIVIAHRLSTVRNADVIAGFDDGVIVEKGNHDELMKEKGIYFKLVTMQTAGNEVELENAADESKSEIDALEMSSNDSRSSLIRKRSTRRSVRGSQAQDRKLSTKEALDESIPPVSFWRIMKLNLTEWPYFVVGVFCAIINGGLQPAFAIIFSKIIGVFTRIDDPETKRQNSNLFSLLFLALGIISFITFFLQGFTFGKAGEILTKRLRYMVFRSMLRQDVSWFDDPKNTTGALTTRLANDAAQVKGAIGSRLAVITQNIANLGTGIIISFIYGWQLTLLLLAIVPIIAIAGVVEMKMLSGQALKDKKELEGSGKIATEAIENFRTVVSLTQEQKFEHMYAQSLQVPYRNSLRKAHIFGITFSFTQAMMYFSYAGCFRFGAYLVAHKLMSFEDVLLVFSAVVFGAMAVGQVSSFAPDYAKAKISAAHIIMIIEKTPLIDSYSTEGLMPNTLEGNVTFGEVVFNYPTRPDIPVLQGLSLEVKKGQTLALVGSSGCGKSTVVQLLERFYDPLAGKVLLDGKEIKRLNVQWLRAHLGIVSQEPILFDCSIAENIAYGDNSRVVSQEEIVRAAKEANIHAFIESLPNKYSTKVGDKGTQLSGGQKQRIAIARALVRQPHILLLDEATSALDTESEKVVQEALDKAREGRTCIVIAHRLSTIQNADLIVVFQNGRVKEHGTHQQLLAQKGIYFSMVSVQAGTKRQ

With `CN1C(=O)[C@H](O)[C@@H](c2ccccc2)[C@H]1[C@H](O)c1ccccc1` [(+)CLA, 3R,4S,5S,6R-CLA], the “Decrease of Rh123 intracellular accumulation relative to vehicle control” value on P-gp [1] (CLA 1 μmol/L, Rh123 5 μmol/L, 2 h) worked out at 11.7%. In addition, the “Reduction of Rh123 intracellular concentration relative to verapamil treatment alone” value on P-gp [1] (co-treatment CLA 1 μmol/L with verapamil 200 μmol/L) amounted to 29.3%. Further, the “Percentage of rhodamine 123 accumulation relative to vehicle treatment” value at P-gp [1] (setting [4]) was 58.2% and 58.22%; at P-gp [1] (setting [5]), -11.68%. For the same compound, the “More Rh123 accumulation than verapamil alone” value at P-gp [1] is listed as 23.1%. In addition, the “Decrease of Rh123 accumulation vs. control” value at P-gp [2] is given as 28.2%. Besides, the results for the “Percentage of rhodamine 123 accumulation relative to vehicle treatment, Mean±SD, n = 3” value with P-gp [3] (high dose) and in the data set with P-gp [3] (low dose) were 41.28±16.86% and -19.21±7.16%, respectively.

For the compound `CN1C(=O)[C@@H](O)[C@H](c2ccccc2)[C@@H]1[C@@H](O)c1ccccc1` [(−)CLA, 3S, 4R, 5R, 6S-clausenamide], the “Percentage of rhodamine 123 accumulation relative to vehicle treatment” value was 63.0% and 62.97% at P-gp [1] (setting [4]); 28.5% and 28.51% at P-gp [1] (setting [5]). The “More Rh123 accumulation than verapamil alone” value at P-gp [1] was determined as 24.2%. For the same compound, the “Increase of Rh123 accumulation vs. control” value on P-gp [2] is recorded as 18.0%. Also, the “Percentage of rhodamine 123 accumulation relative to vehicle treatment, Mean±SD, n = 3” value was 50.48±17.88% with P-gp [3] (high dose) and 18.90±10.22% in the data set on P-gp [3] (low dose).
